Measured values published in ChEMBL document CHEMBL4616725, “Global PROTAC Toolbox for Degrading BCR-ABL Overcomes Drug-Resistant Mutants and Adverse Effects” (J Med Chem, 2020).
Calls of active or inactive are those of the source. No cut-off for these calls is given here.

Legend:
[1] = target: T1, Protein cereblon/Tyrosine-protein kinase ABL1/Breakpoint cluster region protein (Homo sapiens, UniProt P00519+P11274+Q96SW2); test: Protac activity at Cereblon/BCR/ABL in human K562 cells assessed as induction of BCR-ABL degradation incubated for 32 to 48 hrs by Western blot analysis; format: cell-based
K562 = test: Antiproliferative activity against human K562 cells incubated for 3 days by CCK8 assay; format: functional, cell-based; details: K562, 72 h
[2] = test system: Protein cereblon/Tyrosine-protein kinase ABL1/Breakpoint cluster region protein (Homo sapiens), P00519+P11274+Q96SW2 [T315I]; test: Protac activity at Cereblon/BCR/ABL T315I mutant (unknown origin) expressed in mouse BaF3 cells assessed as reduction in BCR-ABL T315I mutant protein levels at 3 to 30000 nM incubated for 32 hrs by Western blot analysis; format: cell-based
BaF3 = test: Antiproliferative activity against wild type mouse BA/F3 cells incubated for 3 days by CCK8 assay; format: cell-based; details: BaF3, 72 h
[3] = target: Protein cereblon/Tyrosine-protein kinase ABL1/Breakpoint cluster region protein (Homo sapiens, UniProt P00519+P11274+Q96SW2, T315I); format: cell-based, BaF3
[4] = test system: Protein cereblon/Tyrosine-protein kinase ABL1/Breakpoint cluster region protein (Homo sapiens), P00519+P11274+Q96SW2 [E255K]; test: Protac activity at Cereblon/BCR/ABL E255K mutant (unknown origin) expressed in human HeLa cells assessed as reduction in BCR-ABL E255K mutant protein levels at 10 to 10000 nM incubated for 32 hrs by Western blot analysis; format: cell-based
[5] = test system: Protein cereblon/Tyrosine-protein kinase ABL1/Breakpoint cluster region protein (Homo sapiens), P00519+P11274+Q96SW2 [H396R]; test: Protac activity at Cereblon/BCR/ABL H396R mutant (unknown origin) expressed in human HeLa cells assessed as reduction in BCR-ABL H396R mutant protein levels at 10 to 10000 nM incubated for 32 hrs by Western blot analysis; format: cell-based
[6] = test system: Protein cereblon/Tyrosine-protein kinase ABL1/Breakpoint cluster region protein (Homo sapiens), P00519+P11274+Q96SW2 [V468F]; test: Protac activity at Cereblon/BCR/ABL V468F mutant (unknown origin) expressed in human HeLa cells assessed as reduction in BCR-ABL V468F mutant protein levels at 10 to 10000 nM incubated for 32 hrs by Western blot analysis; format: cell-based
H9c2 = test: Antiproliferative activity against rat H9C2 cells incubated for 3 days by CCK8 assay; format: cell-based; details: H9c2, 72 h
HUVEC [7] = test: Antiproliferative activity against human HUVEC incubated for 3 days by CCK8 assay; format: cell-based; details: 72 h
[8] = target: T2, Tyrosine-protein kinase ABL1 (Homo sapiens, UniProt P00519, T315I); test: Inhibition of human ABL T315I mutant using EAIYAAPFAKKK substrate and [gamma-33P]-ATP incubated for 40 mins by scintillation counting method
[9] = target: Tyrosine-protein kinase Lyn (Homo sapiens, UniProt P07948); test: Inhibition of human LYN using poly(Glu,Tyr)4:1 substrate and [gamma-33P]-ATP incubated for 40 mins by scintillation counting method
[10] = target: T3, Proto-oncogene tyrosine-protein kinase Src (Homo sapiens, UniProt P12931); test: Inhibition of human c-SRC using poly(Glu,Tyr)4:1 substrate and [gamma-33P]-ATP incubated for 40 mins by scintillation counting method
[11] = target: Vascular endothelial growth factor receptor 2 (Homo sapiens, UniProt P35968); test: Inhibition of human VEGFR2 using MBP substrate and [gamma-33P]-ATP incubated for 40 mins by scintillation counting method
HUVEC [12] = test: Toxicity in HUVEC assessed as inhibition of tube formation at 1 uM incubated for 20 hrs by optical microscopy based matrigel-based assay; format: cell-based; details: human
[13] = target: T1, Protein cereblon/Tyrosine-protein kinase ABL1/Breakpoint cluster region protein; test: Protac activity at Cereblon/BCR/ABL in human K562 cells assessed as synergistic antiproliferation effect by measuring combination index at 0.25 to 4 times alone antiproliferative EC50 ibn presence of hedgehog pathway inhibitor […] by Chou-Talalay method; format: cell-based
[14] = target: Protein cereblon/Receptor-type tyrosine-protein kinase FLT3 (Homo sapiens, UniProt P36888+Q96SW2); test: Protac activity at Cereblon/Flt3 in human K562 cells assessed as reduction in Flt3 protein levels at 3 to 30000 nM incubated for 48 hrs by Western blot analysis; format: ADME, cell-based
[15] = target: Protein cereblon/Proto-oncogene tyrosine-protein kinase Src (Homo sapiens, UniProt P12931+Q96SW2); test: Protac activity at Cereblon/Src in human K562 cells assessed as reduction in Src protein levels at 3 to 30000 nM incubated for 48 hrs by Western blot analysis; format: ADME, cell-based; details: k562, 48 h, 30 µM
[16] = target: Protein cereblon/Mast/stem cell growth factor receptor Kit (Homo sapiens, UniProt P10721+Q96SW2); test: Protac activity at Cereblon/C-Kit in human K562 cells assessed as reduction in C-Kit protein levels at 3 to 30000 nM incubated for 48 hrs by Western blot analysis; format: ADME, cell-based; details: k562, 48 h, 30 µM
[17] = target: Protein cereblon/Platelet-derived growth factor receptor alpha (Homo sapiens, UniProt P16234+Q96SW2); test: Protac activity at Cereblon/PDGFRalpha in human K562 cells assessed as reduction in PDGFRalpha protein levels at 3 to 30000 nM incubated for 48 hrs by Western blot analysis; format: ADME, cell-based; details: k562, 48 h, 30 µM
[18] = target: T2, Tyrosine-protein kinase ABL1; test: Safety index, ratio of compound IC50 to ponatinib IC50 for inhibition of human ABL T315I mutant using EAIYAAPFAKKK substrate and [gamma-33P]-ATP incubated for 40 mins by scintillation counting method
[19] = target: T3, Proto-oncogene tyrosine-protein kinase Src; test: Safety index, ratio of compound IC50 to ponatinib IC50 for inhibition of human c-SRC using poly(Glu,Tyr)4:1 substrate and [gamma-33P]-ATP incubated for 40 mins by scintillation counting method

T3 sequence (P12931 2-536 limits assumed): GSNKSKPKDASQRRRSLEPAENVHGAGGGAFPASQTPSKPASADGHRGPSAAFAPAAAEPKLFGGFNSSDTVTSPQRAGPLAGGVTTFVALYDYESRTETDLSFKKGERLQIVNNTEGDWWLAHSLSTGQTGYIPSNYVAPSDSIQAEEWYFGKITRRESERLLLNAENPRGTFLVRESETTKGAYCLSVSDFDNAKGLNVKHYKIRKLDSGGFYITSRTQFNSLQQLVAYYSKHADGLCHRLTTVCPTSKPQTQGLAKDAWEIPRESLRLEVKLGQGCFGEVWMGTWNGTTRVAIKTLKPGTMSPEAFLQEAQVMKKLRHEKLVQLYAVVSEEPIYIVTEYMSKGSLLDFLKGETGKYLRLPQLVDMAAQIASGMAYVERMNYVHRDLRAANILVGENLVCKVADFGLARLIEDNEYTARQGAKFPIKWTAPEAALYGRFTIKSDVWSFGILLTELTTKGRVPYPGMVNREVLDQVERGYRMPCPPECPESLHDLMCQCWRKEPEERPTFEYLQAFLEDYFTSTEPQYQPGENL
Protein cereblon/Receptor-type tyrosine-protein kinase FLT3, sequence (P36888 whole entry): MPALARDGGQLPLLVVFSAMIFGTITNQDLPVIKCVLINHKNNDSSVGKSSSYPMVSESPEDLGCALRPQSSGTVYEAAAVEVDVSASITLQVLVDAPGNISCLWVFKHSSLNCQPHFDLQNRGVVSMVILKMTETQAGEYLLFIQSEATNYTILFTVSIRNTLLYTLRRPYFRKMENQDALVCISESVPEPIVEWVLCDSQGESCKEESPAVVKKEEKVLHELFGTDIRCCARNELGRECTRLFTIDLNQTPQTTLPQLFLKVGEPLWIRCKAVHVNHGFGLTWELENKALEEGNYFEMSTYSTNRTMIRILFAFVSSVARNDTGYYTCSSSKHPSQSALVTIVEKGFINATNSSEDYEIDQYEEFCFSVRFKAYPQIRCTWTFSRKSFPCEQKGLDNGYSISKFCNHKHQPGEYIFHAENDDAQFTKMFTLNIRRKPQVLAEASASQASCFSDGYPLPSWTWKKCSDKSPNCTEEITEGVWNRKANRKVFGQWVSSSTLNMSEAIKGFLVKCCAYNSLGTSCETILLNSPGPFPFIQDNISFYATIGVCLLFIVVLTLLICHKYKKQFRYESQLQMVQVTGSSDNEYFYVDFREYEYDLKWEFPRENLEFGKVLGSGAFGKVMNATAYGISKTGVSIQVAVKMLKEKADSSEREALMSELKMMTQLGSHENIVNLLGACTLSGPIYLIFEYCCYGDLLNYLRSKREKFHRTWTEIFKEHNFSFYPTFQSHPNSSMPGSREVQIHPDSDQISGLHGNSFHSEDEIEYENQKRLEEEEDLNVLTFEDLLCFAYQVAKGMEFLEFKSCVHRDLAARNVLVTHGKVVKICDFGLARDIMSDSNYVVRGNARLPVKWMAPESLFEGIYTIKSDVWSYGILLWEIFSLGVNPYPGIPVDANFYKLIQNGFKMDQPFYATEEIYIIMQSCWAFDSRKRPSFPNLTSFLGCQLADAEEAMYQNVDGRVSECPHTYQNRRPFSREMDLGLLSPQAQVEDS
Protein cereblon/Receptor-type tyrosine-protein kinase FLT3, sequence (Q96SW2 whole entry): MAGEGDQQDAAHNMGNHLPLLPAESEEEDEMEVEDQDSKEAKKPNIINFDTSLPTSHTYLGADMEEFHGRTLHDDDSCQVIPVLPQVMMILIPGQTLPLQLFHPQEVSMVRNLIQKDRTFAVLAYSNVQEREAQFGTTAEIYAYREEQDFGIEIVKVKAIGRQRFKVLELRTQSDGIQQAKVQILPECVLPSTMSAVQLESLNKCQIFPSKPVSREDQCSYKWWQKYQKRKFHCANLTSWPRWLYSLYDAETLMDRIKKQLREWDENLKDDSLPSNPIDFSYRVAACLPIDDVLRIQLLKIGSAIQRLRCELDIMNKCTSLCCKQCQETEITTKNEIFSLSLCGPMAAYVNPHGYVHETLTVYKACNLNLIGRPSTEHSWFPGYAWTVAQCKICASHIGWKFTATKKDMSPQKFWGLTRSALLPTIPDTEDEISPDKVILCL
Protein cereblon/Platelet-derived growth factor receptor alpha, sequence (P16234 whole entry): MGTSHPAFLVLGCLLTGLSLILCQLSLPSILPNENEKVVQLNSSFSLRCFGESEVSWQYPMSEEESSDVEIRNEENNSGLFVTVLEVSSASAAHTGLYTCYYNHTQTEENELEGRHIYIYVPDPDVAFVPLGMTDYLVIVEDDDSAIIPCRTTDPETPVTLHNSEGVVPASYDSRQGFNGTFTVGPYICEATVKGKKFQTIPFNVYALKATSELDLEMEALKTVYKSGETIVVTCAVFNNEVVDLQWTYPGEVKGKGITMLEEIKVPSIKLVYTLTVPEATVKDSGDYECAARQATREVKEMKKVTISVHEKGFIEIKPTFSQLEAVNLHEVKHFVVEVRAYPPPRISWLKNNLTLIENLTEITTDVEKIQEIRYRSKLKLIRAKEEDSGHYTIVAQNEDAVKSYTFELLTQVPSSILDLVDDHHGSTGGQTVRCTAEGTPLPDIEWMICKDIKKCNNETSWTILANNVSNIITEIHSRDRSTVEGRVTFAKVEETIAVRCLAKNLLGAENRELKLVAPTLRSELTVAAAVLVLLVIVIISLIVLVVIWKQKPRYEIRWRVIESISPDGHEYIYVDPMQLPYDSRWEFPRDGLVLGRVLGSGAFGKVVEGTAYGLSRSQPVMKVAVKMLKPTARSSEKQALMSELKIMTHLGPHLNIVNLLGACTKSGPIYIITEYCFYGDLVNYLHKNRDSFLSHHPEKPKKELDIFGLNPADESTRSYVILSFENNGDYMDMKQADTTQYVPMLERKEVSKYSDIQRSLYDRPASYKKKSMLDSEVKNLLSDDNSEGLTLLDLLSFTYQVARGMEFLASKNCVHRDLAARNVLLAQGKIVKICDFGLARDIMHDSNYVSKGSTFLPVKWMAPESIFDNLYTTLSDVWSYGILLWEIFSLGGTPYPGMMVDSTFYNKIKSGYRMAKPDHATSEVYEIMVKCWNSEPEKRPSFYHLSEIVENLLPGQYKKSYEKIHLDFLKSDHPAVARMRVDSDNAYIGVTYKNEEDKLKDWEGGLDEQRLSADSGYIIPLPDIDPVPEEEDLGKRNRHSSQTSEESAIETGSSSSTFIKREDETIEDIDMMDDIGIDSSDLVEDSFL
Protein cereblon/Platelet-derived growth factor receptor alpha, sequence (Q96SW2 whole entry): as the sequence (Q96SW2 whole entry) above
Tyrosine-protein kinase Lyn, sequence (P07948 whole entry): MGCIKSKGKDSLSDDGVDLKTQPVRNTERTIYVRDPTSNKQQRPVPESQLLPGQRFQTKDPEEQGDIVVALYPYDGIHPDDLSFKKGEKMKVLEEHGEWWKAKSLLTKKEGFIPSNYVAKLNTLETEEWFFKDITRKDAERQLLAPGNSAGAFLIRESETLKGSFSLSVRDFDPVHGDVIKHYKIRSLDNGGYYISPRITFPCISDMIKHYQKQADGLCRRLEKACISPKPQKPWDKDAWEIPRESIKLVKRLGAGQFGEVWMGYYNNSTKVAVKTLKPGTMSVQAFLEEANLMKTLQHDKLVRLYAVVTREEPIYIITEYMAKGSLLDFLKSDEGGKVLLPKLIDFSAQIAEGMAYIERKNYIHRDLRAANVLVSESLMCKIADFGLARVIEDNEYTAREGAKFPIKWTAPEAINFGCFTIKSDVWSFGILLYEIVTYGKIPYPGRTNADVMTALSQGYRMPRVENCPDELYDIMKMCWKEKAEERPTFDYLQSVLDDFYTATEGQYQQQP
Vascular endothelial growth factor receptor 2, sequence (P35968 whole entry): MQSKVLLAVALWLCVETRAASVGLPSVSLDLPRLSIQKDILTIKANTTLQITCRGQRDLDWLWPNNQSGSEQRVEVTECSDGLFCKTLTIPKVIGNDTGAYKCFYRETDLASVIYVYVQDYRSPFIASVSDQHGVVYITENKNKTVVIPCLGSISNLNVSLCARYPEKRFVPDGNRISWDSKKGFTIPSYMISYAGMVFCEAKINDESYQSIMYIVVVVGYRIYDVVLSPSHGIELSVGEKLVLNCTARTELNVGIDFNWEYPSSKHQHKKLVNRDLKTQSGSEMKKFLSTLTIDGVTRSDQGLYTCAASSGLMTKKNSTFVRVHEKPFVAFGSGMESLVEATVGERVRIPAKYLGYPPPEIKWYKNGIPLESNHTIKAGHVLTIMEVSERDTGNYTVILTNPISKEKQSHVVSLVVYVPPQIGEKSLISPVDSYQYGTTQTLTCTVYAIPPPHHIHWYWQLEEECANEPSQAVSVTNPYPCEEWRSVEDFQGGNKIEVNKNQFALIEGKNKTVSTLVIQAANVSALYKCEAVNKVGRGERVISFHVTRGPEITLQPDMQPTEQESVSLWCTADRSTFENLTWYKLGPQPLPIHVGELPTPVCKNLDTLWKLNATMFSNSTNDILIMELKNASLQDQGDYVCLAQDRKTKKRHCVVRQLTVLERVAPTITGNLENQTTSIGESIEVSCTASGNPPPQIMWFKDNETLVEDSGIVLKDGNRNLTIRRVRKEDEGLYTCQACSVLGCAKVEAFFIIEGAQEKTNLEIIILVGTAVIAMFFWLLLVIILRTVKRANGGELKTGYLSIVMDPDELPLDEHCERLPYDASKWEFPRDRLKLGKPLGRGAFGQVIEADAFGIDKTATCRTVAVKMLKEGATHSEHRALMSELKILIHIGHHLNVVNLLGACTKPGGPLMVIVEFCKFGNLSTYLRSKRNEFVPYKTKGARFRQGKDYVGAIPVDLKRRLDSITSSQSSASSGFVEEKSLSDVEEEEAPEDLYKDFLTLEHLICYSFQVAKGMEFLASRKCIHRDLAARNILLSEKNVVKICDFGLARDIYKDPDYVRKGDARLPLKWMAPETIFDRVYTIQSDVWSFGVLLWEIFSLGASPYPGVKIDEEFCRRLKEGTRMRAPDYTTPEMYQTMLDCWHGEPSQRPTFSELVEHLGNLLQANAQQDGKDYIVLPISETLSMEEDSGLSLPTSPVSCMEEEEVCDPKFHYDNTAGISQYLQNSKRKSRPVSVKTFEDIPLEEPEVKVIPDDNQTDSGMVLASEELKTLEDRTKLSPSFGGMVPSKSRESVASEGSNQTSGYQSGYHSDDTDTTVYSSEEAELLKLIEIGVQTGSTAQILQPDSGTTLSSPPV

Cc1ccc(C(=O)Nc2ccc(CN3CCN(C(=O)CCCc4cn(CCOCCOCCOCCNc5cccc6c5C(=O)N(C5CCC(=O)NC5=O)C6=O)nn4)CC3)c(C(F)(F)F)c2)cc1C#Cc1cnc2cccnn12 (configuration not stated)
DC50 [1]: 20 nM
IC50 (K562): 7.5 nM
Activity [2]: Active
EC50 (BaF3): > 10000 nM
EC50 [3]: 28.5 nM
Activity [4]: Active
Activity [5]: Active
Activity [6]: Active
EC50 (H9c2): > 10000 nM
EC50 (HUVEC [7]): > 10000 nM
IC50 [8]: 13.1 nM
IC50 [9]: 44.2 nM
IC50 [10]: 2580 nM
IC50 [11]: 441 nM
Activity (HUVEC [12]): Non-Toxic
CI [13]: < 1
IC50 [14]: > 300 nM
Activity [15]: Not Active
Activity [16]: Not Active
Activity [17]: Not Active
Ratio IC50 [18]: 13
Ratio IC50 [19]: 257
